The text below walks through data of US6664214B1, “Uracil compounds and use thereof” (Sumitomo Chemical Company, Limited, priority 1999, dated 2003).

Assay [1] concerns large crabgrass. Briefly: Test Example 5: foliar treatment on upland field (Table 6). It is filed as in vivo, Digitaria sanguinalis. Further details: key: 0: little difference in the degree of germination or growth between the treated plants and the untreated plants at the time of examination; 10: the treated plants died completely or their germination or growth was completely inhibited. The conditions noted are these: 125 g/ha, 19 days after application, index 0 to 10. The protocol:
In the examples, the compounds are identified by the Compound Numbers as in Tables 1 to 3. […] A pot for plug seedlings seeded with large crabgrass. The test plant was grown in a greenhouse for 14 days, then transplanted into a plastic pot having an area of 17×12 cm^2 and a depth of 7 cm, and further the test plants were grown in the greenhouse for 8 days. Then each of compounds listed below was formulated into an emulsifiable concentrate according to Formulation Example 2 and then diluted to the prescribed amount with water containing a spreading agent and the dilution was uniformly sprayed over the foliage of the test plants with sprayer at a rate of 1000 liters per hectare. After the application, the test plants were grown in the greenhouse for 19 days, and the herbicidal activity were determined.

In assay [2] the test system is barnyardgrass. Briefly: Test Example 1: foliar treatment on upland field. It is filed as in vivo, Echinochloa crus-galli. Conditions: 125 g/ha, 8 days after application. The protocol: (§1) In the examples, the compounds are identified by the Compound Numbers as in Tables 1 to 3.
(§2) A cylindrical plastic pot having a diameter of 10 cm and a depth of 10 cm was filled with soil and seeded with ivyleaf momingglory, velvetleaf and bamyardgrass. These test plants were grown in a greenhouse for 9 days. Then each of compounds 1-1, 2-1, 2-2, 3-1 and 3-101 was formulated into an emulsifiable concentrate according to Formulation Example 2 and then diluted to the prescribed amount with water containing a spreading agent and the dilution was uniformly sprayed over the foliage of the test plants with sprayer at a rate of 1000 liters per hectare. After the application, the test plants were grown in the greenhouse for 8 days, and the herbicidal activity were determined.

For assay [3], the system named is large crabgrass. Briefly: Test Example 6: foliar treatment on upland field (Table 7). It is filed as in vivo, Digitaria sanguinalis. Further details: key: 0: little difference in the degree of germination or growth between the treated plants and the untreated plants at the time of examination; 10: the treated plants died completely or their germination or growth was completely inhibited. The conditions noted are these: 8 g/ha, 19 days after application, index 0 to 10. The protocol:
(§3) In the examples, the compounds are identified by the Compound Numbers as in Tables 1 to 3. […] A plastic pot having a area of 27×20 cm^2 and a depth of 7.5 cm filled with soil, seeded with barnyardgrass. The test plant was grown in a greenhouse for 4 days. The seedlings of large crabgrass and giant foxtail, which were seeded into a pot for plug seedlings and grown in a greenhouse for 14 days, were transplanted into the plastic pot. The test plants, further, were grown in the greenhouse for 8 days. Then each of compound listed below was formulated into an emulsifiable concentrate according to Formulation Example 2 and then diluted to the prescribed amount with water containing a spreading agent and the dilution was uniformly sprayed over the foliage of the test plants with sprayer at a rate of 1000 liters per hectare. After the application, the test plants were grown in the greenhouse for 19 days, and the herbicidal activity were determined.

In assay [4] the test system is ivyleaf morningglory. Briefly: Test Example 1: foliar treatment on upland field. It is filed as in vivo, Ipomoea hederacea. The conditions noted are these: 125 g/ha, 8 days after application. As for the experimental part: as §1, §2
For assay [5], the system named is barnyardgrass. Description: Test Example 3: foliar treatment on upland field (Table 4). Further details: key: 0: little difference in the degree of germination or growth between the treated plants and the untreated plants at the time of examination; 10: the treated plants died completely or their germination or growth was completely inhibited. It is filed as in vivo, Echinochloa crus-galli. Conditions: 125 g/ha active ingredient, examined 16 days after application, index 0-10. As for the experimental part: (§4) In the examples, the compounds are identified by the Compound Numbers as in Tables 1 to 3. […] A cylindrical plastic pot having a diameter of 10 cm and a depth of 10 cm was filled with soil and seeded with ivyleaf momingglory, velvetleaf and barnyardgrass. These test plants were grown in a greenhouse for 10 days. Then each of compounds listed below was formulated into an emulsifiable concentrate according to Formulation Example 2 and then diluted to the prescribed amount with water containing a spreading agent and the dilution was uniformly sprayed over the foliage of the test plants with sprayer at a rate of 1000 liters per hectare. After the application, the test plants were grown in the greenhouse for 16 days, and the herbicidal activity were determined.

Assay [6] deals with velvetleaf. Description: Test Example 2: soil surface treatment on upland field. It is filed as in vivo, Abutilon theophrasti. Conditions: 500 g/ha, 12 days after application. The text has this:
(§5) In the examples, the compounds are identified by the Compound Numbers as in Tables 1 to 3. […] A cylindrical plastic pot having a diameter of 10 cm and a depth of 10 cm was filled with soil and seeded with velvetleaf. Then each of compounds 1-1, 2-1, 2-2, 3-1 and 3-101 was formulated into an emulsifiable concentrate according to Formulation Example 2 and then diluted to the prescribed amount with water and dilution was uniformly sprayed over the surface of the soil with sprayer at a rate of 1000 liters per hectare. After the application, the test plants were grown in a greenhouse for 12 days, and the herbicidal activity was examined.

In assay [7] the test system is ivyleaf morningglory. Description: Test Example 4: soil surface treatment on upland field (Table 5). It is filed as in vivo, Ipomoea hederacea. Set-up: key: 0: little difference in the degree of germination or growth between the treated plants and the untreated plants at the time of examination; 10: the treated plants died completely or their germination or growth was completely inhibited. The conditions noted are these: 500 g/ha active ingredient, examined 12 days after application, index 0-10.
Excerpt: as §5, with “seeded ivyleaf morningglory, velvetleaf and barnyardgrass.” for “seeded with velvetleaf.”, “compounds listed below” for “compounds 1-1, 2-1, 2-2, 3-1 and 3-101”, “at the” for “at a”

The subject of assay [8] is barnyardgrass. Briefly: Test Example 6: foliar treatment on upland field (Table 7). It is filed as in vivo, Echinochloa crus-galli. The conditions noted are these: 8 g/ha, 19 days after application, index 0 to 10. Further details: key: 0: little difference in the degree of germination or growth between the treated plants and the untreated plants at the time of examination; 10: the treated plants died completely or their germination or growth was completely inhibited. The protocol:
as §3

Assay [9] deals with velvetleaf. Description: Test Example 3: foliar treatment on upland field (Table 4). It is filed as in vivo, Abutilon theophrasti. Further details: key: 0: little difference in the degree of germination or growth between the treated plants and the untreated plants at the time of examination; 10: the treated plants died completely or their germination or growth was completely inhibited. Conditions: 125 g/ha active ingredient, examined 16 days after application, index 0-10. As for the experimental part: as §4

Another assay concerns giant foxtail. Description: Test Example 6: foliar treatment on upland field (Table 7). It is filed as in vivo, Setaria faberi. Conditions: 8 g/ha, 19 days after application, index 0 to 10. Set-up: key: 0: little difference in the degree of germination or growth between the treated plants and the untreated plants at the time of examination; 10: the treated plants died completely or their germination or growth was completely inhibited. As for the experimental part:
as §3

Assay [10] relates to velvetleaf. Description: Test Example 1: foliar treatment on upland field. It is filed as in vivo, Abutilon theophrasti. The conditions noted are these: 125 g/ha, 8 days after application. As for the experimental part: as §1, §2
Assay [11] concerns barnyardgrass. Briefly: Test Example 4: soil surface treatment on upland field (Table 5). Further details: key: 0: little difference in the degree of germination or growth between the treated plants and the untreated plants at the time of examination; 10: the treated plants died completely or their germination or growth was completely inhibited. It is filed as in vivo, Echinochloa crus-galli. The conditions noted are these: 500 g/ha active ingredient, examined 12 days after application, index 0-10.
Excerpt: as §5, with “seeded ivyleaf morningglory, velvetleaf and barnyardgrass.” for “seeded with velvetleaf.”, “compounds listed below” for “compounds 1-1, 2-1, 2-2, 3-1 and 3-101”, “at the” for “at a”

Assay [12] concerns velvetleaf. The description is as above. It is filed as in vivo, Abutilon theophrasti. Further details: key: 0: little difference in the degree of germination or growth between the treated plants and the untreated plants at the time of examination; 10: the treated plants died completely or their germination or growth was completely inhibited. Conditions: 500 g/ha active ingredient, examined 12 days after application, index 0-10.
Excerpt: as §5, with “seeded ivyleaf morningglory, velvetleaf and barnyardgrass.” for “seeded with velvetleaf.”, “compounds listed below” for “compounds 1-1, 2-1, 2-2, 3-1 and 3-101”, “at the” for “at a”

Assay [13] deals with ivyleaf morningglory. Briefly: Test Example 3: foliar treatment on upland field (Table 4). It is filed as in vivo, Ipomoea hederacea. Set-up: key: 0: little difference in the degree of germination or growth between the treated plants and the untreated plants at the time of examination; 10: the treated plants died completely or their germination or growth was completely inhibited. Conditions: 125 g/ha active ingredient, examined 16 days after application, index 0-10. The protocol:
as §4

SMILES strings stand for the structures.

Regarding `COC(=O)C(C)Oc1ccc(COc2cc(-n3c(=O)cc(C(F)(F)F)n(C)c3=O)c(F)cc2Cl)cc1` (stereo not shown) [Compound 1-1, methyl 2-[4-({2-chloro-4-fluoro-5-[3-methyl-2,6-dioxo-4-(trifluoromethyl)-1,2,3,6-tetrahydropyrimidine-1-yl]phenoxyl}methyl)phenoxy]propionate], the “Herbicidal effect Large crabgrass” value with large crabgrass [1] and in the assay on large crabgrass [3] was 10 in each case. Also, the growth of barnyardgrass entry in the assay with barnyardgrass [2] was “completely controlled”. Further, in the assay on ivyleaf morningglory [4], the “growth of ivyleaf morningglory” value is recorded as “completely controlled”. In addition, the “Herbicidal effect Barnyardgrass” value with barnyardgrass [5] worked out at 10; with barnyardgrass [11], 9. Besides, in the assay with velvetleaf [6], the germination of velvetleaf entry is “completely controlled”. Moreover, the “Herbicidal effect Ivyleaf morningglory” value with ivyleaf morningglory [7] and with ivyleaf morningglory [13] was 10 throughout. The “Herbicidal effect Barnyard-grass” value with barnyardgrass [8] turned out to be 10. Besides, the “Herbicidal effect Velvetleaf” value in the assay with velvetleaf [9] and with velvetleaf [12] was 10 each time. In addition, the “Herbicidal effect Giant foxtail” value in the assay with giant foxtail stood at 9. In the assay with velvetleaf [10], the growth of velvetleaf result is “completely controlled”.

With `COC(=O)C(C)Oc1cccc(COc2cc(-n3c(=O)cc(C(F)(F)F)n(C)c3=O)c(F)cc2Cl)c1` (stereo not shown) [Compound 2-1, methyl 2-[3-({2-chloro-4-fluoro-5-[3-methyl-2,6-dioxo-4-(trifluoromethyl)-1,2,3,6-tetrahydropyrimidine-1-yl]phenoxy}methyl)phenoxy]propionate], the “Herbicidal effect Large crabgrass” value in the assay on large crabgrass [1] and in the assay with large crabgrass [3] was 10 in each case. Also, in the assay with barnyardgrass [2], the growth of barnyardgrass entry is on record as “completely controlled”. The “growth of ivyleaf morningglory” value with ivyleaf morningglory [4] was “completely controlled”. Besides, the “Herbicidal effect Barnyardgrass” value in the assay with barnyardgrass [5] and in the assay on barnyardgrass [11] was 10 each time. Moreover, the germination of velvetleaf result in the assay on velvetleaf [6] is “completely controlled”. In addition, the “Herbicidal effect Ivyleaf morningglory” value in the assay on ivyleaf morningglory [7] and in the assay with ivyleaf morningglory [13] was 10 each time. For the same compound, the “Herbicidal effect Barnyard-grass” value in the assay with barnyardgrass [8] is reported as 10. Also, the “Herbicidal effect Velvetleaf” value with velvetleaf [9] and with velvetleaf [12] was 10 throughout. For the same compound, the “Herbicidal effect Giant foxtail” value in the assay with giant foxtail was found to be 10. In the assay on velvetleaf [10], the growth of velvetleaf entry is “completely controlled”.

For the compound `CCOC(=O)C(C)Oc1cccc(COc2cc(-n3c(=O)cc(C(F)(F)F)n(C)c3=O)c(F)cc2Cl)c1` (stereo not shown) [Compound 2-2, Ethyl 2-[3-({2-chloro-4-fluoro-5-[3-methyl-2,6-dioxo-4-(trifluoromethyl)-1,2,3,6-tetrahydropyrimidine-1-yl]phenoxy}methyl)phenoxy]propionate], the “Herbicidal effect Large crabgrass” value in the assay with large crabgrass [1] turned out to be 10. For the same compound, in the assay on barnyardgrass [2], the growth of barnyardgrass entry is given as “completely controlled”. In the assay on ivyleaf morningglory [4], the “growth of ivyleaf morningglory” value was “completely controlled”. Moreover, the “Herbicidal effect Barnyardgrass” value in the assay with barnyardgrass [5] and with barnyardgrass [11] was 10 each time. The germination of velvetleaf result in the assay with velvetleaf [6] is “completely controlled”. Moreover, the “Herbicidal effect Ivyleaf morningglory” value in the assay with ivyleaf morningglory [7] and in the assay on ivyleaf morningglory [13] was 10 in each case. For the same compound, the “Herbicidal effect Velvetleaf” value in the assay with velvetleaf [9] and with velvetleaf [12] was 10 each time. Further, in the assay with velvetleaf [10], the growth of velvetleaf entry is given as “completely controlled”.

For the compound `CCc1ccc(COc2cc(-n3c(=O)cc(C(F)(F)F)n(C)c3=O)c(F)cc2Cl)c(OC(C)C(=O)OC)c1` (stereo not shown) [Compound 3-101, Methyl 2-[2-({2-chloro-4-fluoro-5-[3-methyl-2,6-dioxo-4-(trifluoromethyl)-1,2,3,6-tetrahydropyrimidine-1-yl]phenoxy}methyl)-5-ethylphenoxy]propionate], the growth of barnyardgrass result in the assay on barnyardgrass [2] is “completely controlled”. For the same compound, in the assay with ivyleaf morningglory [4], the “growth of ivyleaf morningglory” value is “completely controlled”. Besides, the germination of velvetleaf entry in the assay on velvetleaf [6] was “completely controlled”. Also, the growth of velvetleaf result with velvetleaf [10] is given as “completely controlled”.
